The supplement of paper PMC10702517
± gives the standard deviation.

Experiments:
[1] = chemical recovery from spiked human plasma; higher = better extraction; conditions: pooled human plasma
[2] = chemical recovery into PDMS from spiked human plasma; higher = better extraction; conditions: pooled human plasma, extraction method: PES with PDMS
[3] = chemical recovery by SPE of plasma after PDMS sampling; higher = better extraction; conditions: pooled human plasma, extraction method: HLB SPE of plasma after PES
[4] = extraction method: SPE only (HLB 96-well)
[5] = extraction method: SPE only (HLB 96-well), PES comparison experiment
[6] = extraction method: solvent precipitation (ACN + hexane)
[7] = extraction method: PES+SPE (3 d PDMS equilibration then HLB SPE)
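Wherever chemical recovery by SPE of plasma after PDMS sampling is given: over 400 spiked chemicals quantified by LC-HRMS or GC-HRMS via internal standard calibration, recovery relative to spike mix added to unspiked plasma extract to correct matrix effects.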

SMILES	chemical recovery [1, 4] [%]	chemical recovery [1, 5] [%]	chemical recovery [1, 6] [%]	chemical recovery into PDMS ([2]; equilibration time (d): 1) [%]	chemical recovery into PDMS ([2]; equilibration time (d): 3) [%]	chemical recovery into PDMS ([2]; equilibration time (d): 6) [%]	chemical recovery by SPE of plasma ([3]; equilibration time (d): 1) [%]	chemical recovery by SPE of plasma ([3]; equilibration time (d): 3) [%]	chemical recovery by SPE of plasma ([3]; equilibration time (d): 6) [%]	chemical recovery [1, 7] [%]
N#Cc1nn(-c2c(Cl)cc(C(F)(F)F)cc2Cl)c(N)c1SC(F)(F)F [Fipronil sulfide]	30.6 ± 3.4	64 ± 7	49.8 ± 3.9	22.6 ± 0.34	25.1 ± 1.1	24.4 ± 0.83	21.2 ± 6.2	19.9 ± 0.92	15.3 ± 3	–
N#Cc1nn(-c2c(Cl)cc(C(F)(F)F)cc2Cl)c(N)c1S(=O)(=O)C(F)(F)F [Fipronil sulfone]	36.7 ± 3.6	67.9 ± 8.3	67.4 ± 7.9	27.8 ± 0.78	32.2 ± 2.1	31 ± 0.79	41.6 ± 14	34.1 ± 7.7	30.8 ± 9.5	–
N#Cc1nn(-c2c(Cl)cc(C(F)(F)F)cc2Cl)c(N)c1[S+]([O-])C(F)(F)F (stereo unspecified) [Fipronil]	31.6 ± 8.2	64.5 ± 6.8	40.3 ± 3.4	25.5 ± 0.91	30.2 ± 2.3	29 ± 0.92	19 ± 4.9	21.5 ± 4.3	15.4 ± 2.5	–
OC(Cn1cncn1)(Cn1cncn1)c1ccc(F)cc1F [Fluconazole]	–	47 ± 6.6	77.1 ± 3.1	2.22 ± 0.25	4.26 ± 1.1	4.9 ± 1	42.2 ± 4.3	42.2 ± 4.8	36.6 ± 3.1	43.8 ± 3.3
CC(C)N(C(=O)COc1nnc(C(F)(F)F)s1)c1ccc(F)cc1 [Flufenacet]	–	52.3 ± 7.7	62.5 ± 3.1	50 ± 1.1	54.1 ± 4.8	51.2 ± 6	0.558 ± 0.061	0.583 ± 0.14	0.269 ± 0.043	–
CC1CCc2cc(F)cc3c(=O)c(C(=O)O)cn1c23 (stereo unspecified) [Flumequine]	44.8 ± 8	49.8 ± 7.5	72.1 ± 3.2	0.511 ± 0.092	2.26 ± 0.88	2.3 ± 1.2	43.1 ± 2.7	43.8 ± 3.9	40.3 ± 3.2	44.1 ± 3.4
CC1(C)O[C@@H]2C[C@H]3[C@@H]4C[C@H](F)C5=CC(=O)C=C[C@]5(C)[C@H]4[C@@H](O)C[C@]3(C)[C@]2(C(=O)CO)O1 [Flunisolide]	–	46.9 ± 5.2	–	5.95 ± 0.6	10.2 ± 1.6	11.7 ± 2	39.7 ± 3.9	37.1 ± 2.1	27.6 ± 2.4	–
c1ccc2c(c1)-c1cccc3cccc-2c13 [Fluoranthene]	6.27 ± 1.4	–	69 ± 3.7	–	106 ± 24	–	–	–	3.75 ± 6.5	79.1 ± 25
CC(=O)[C@@]1(O)CC[C@H]2[C@@H]3C[C@H](C)C4=CC(=O)C=C[C@]4(C)[C@@]3(F)[C@@H](O)C[C@@]21C [Fluorometholone]	–	50.4 ± 7.2	–	1.66 ± 0.4	3.75 ± 0.69	4.15 ± 0.95	45.1 ± 3.6	48.3 ± 3.2	40.3 ± 1.6	–
CNC1=C(c2cccc(C(F)(F)F)c2)C(=O)C(c2ccccc2)O1 (stereo unspecified) [Flurtamone]	51.2 ± 0.52	49.3 ± 7.7	80.8 ± 2.4	1.85 ± 0.36	4.2 ± 2	5.43 ± 2.8	15.5 ± 2.1	11 ± 1.4	6.82 ± 0.47	32.8 ± 7.2
C[Si](Cn1cncn1)(c1ccc(F)cc1)c1ccc(F)cc1 [Flusilazole]	39.4 ± 2.9	48 ± 7.1	70.1 ± 5.4	41.3 ± 2.2	45.7 ± 3.8	43.1 ± 5.8	0.32 ± 0.12	0.383 ± 0.15	0.136 ± 0.0093	45.1 ± 4.8
CC(C)C(=O)Nc1ccc([N+](=O)[O-])c(C(F)(F)F)c1 [Flutamide]	–	67.8 ± 5.2	–	32.4 ± 1.4	36.2 ± 3.1	36.7 ± 1.6	21.7 ± 2.7	22.2 ± 0.83	15.5 ± 1.1	–
CCC(=O)O[C@]1(C(=O)SCF)[C@H](C)C[C@H]2[C@@H]3C[C@H](F)C4=CC(=O)C=C[C@]4(C)[C@@]3(F)[C@@H](O)C[C@@]21C [Fluticasone propionate]	–	41.1 ± 5.8	–	32.3 ± 3	39.3 ± 3.7	41.3 ± 2.3	–	4.78 ± 8.3	–	–
COCCCC/C(=N\OCCN)c1ccc(C(F)(F)F)cc1 [Fluvoxamine]	51 ± 0.52	41.8 ± 7.1	–	2.41 ± 0.97	1.09 ± 0.96	2.83 ± 1.3	1.45 ± 0.092	1.56 ± 0.35	0.901 ± 0.06	4.62 ± 1.6
O=C1CC2(CCCCC2)CN1 [Gabapentin-Lactam]	49.4 ± 1.6	48.4 ± 5.6	71.2 ± 2.9	22.3 ± 0.47	28.5 ± 1.6	31.2 ± 1.6	19.4 ± 2.5	15.6 ± 1.9	9.93 ± 1.6	44.2 ± 6.2
C#C[C@]1(O)C=C[C@H]2[C@@H]3CCC4=CC(=O)CC[C@@H]4[C@H]3CC[C@@]21CC [Gestoden]	–	47 ± 7.4	–	34.1 ± 1.7	43 ± 2.3	40.9 ± 4.1	22.4 ± 3	17.6 ± 1	11.7 ± 1.3	–
COCN(COC)c1nc(N(COC)COC)nc(N(COC)COC)n1 [Hexa(methoxymethyl)melamine]	–	7.63 ± 2.7	72.5 ± 2.8	39.4 ± 2.9	45.8 ± 2.6	41.9 ± 5.7	7.64 ± 6.8	3.37 ± 3	0.745 ± 1	38.3 ± 8.8
CN(C)c1nc(=O)n(C2CCCCC2)c(=O)n1C [Hexazinone]	45.4 ± 3.4	48.5 ± 4.3	–	36.1 ± 1.9	42.2 ± 4.5	44.5 ± 2.9	38.9 ± 6.6	–	22.5 ± 4.4	51.5 ± 4.8
CCC(C)OC(=O)N1CCCCC1CCO (stereo unspecified) [Icaridin]	45 ± 5.5	43.2 ± 8.4	–	27.3 ± 1.6	31.3 ± 3.8	35.5 ± 13	2.46 ± 0.24	2.67 ± 0.36	1.58 ± 0.1	–

SMILES	chemical recovery [1, 4] [%]	chemical recovery [1, 5] [%]	chemical recovery [1, 6] [%]	chemical recovery into PDMS ([2]; equilibration time (d): 1) [%]	chemical recovery into PDMS ([2]; equilibration time (d): 3) [%]	chemical recovery into PDMS ([2]; equilibration time (d): 6) [%]	chemical recovery by SPE of plasma ([3]; equilibration time (d): 1) [%]	chemical recovery by SPE of plasma ([3]; equilibration time (d): 3) [%]	chemical recovery by SPE of plasma ([3]; equilibration time (d): 6) [%]	chemical recovery [1, 7] [%]
O=P1(NCCCl)OCCCN1CCCl (stereo unspecified) [Ifosfamide]	39.4 ± 3.3	55.9 ± 6.7	71.7 ± 1.5	3.64 ± 0.32	6.16 ± 1.5	6.9 ± 1.5	54.9 ± 6.7	56.1 ± 4.8	47.3 ± 4.7	46.6 ± 3.5
C=CCOC(Cn1ccnc1)c1ccc(Cl)cc1Cl (stereo unspecified) [Imazalil]	42.1 ± 3	47.6 ± 5.3	75 ± 4.8	20 ± 0.37	20.6 ± 1	20.7 ± 1.6	0.376 ± 0.081	0.334 ± 0.2	0.104 ± 0.0059	21.3 ± 3.4
CC(C)C1(C)N=C(c2ncccc2C(=O)O)NC1=O (stereo unspecified) [Imazapyr]	44.7 ± 9.6	52.5 ± 4	67.7 ± 5.8	–	–	0.0849 ± 0.048	49.5 ± 5.4	53.1 ± 3.2	49.2 ± 2.4	44.4 ± 2.9
O=C1NCCN1Cc1ccc(Cl)nc1 [Imidacloprid-urea]	43.2 ± 9.1	51.1 ± 4.4	77.1 ± 3.8	6.18 ± 0.38	10.2 ± 1.7	11.7 ± 2	50.1 ± 6.5	50.2 ± 4.6	39.3 ± 1.7	51.2 ± 4.7
O=[N+]([O-])/N=C1\NCCN1Cc1ccc(Cl)nc1 [Imidacloprid]	39.9 ± 8	53.3 ± 7.2	77.5 ± 3.8	3.82 ± 0.41	6.8 ± 1.8	7.69 ± 1.4	49 ± 6.3	50.2 ± 4.6	43.2 ± 2.7	47.6 ± 4
C1=Cc2ccccc2Nc2ccccc21 [Iminostilbene]	44.1 ± 7	28.4 ± 4.4	73.2 ± 4.5	2.55 ± 1.2	2.02 ± 2.1	1.36 ± 0.63	3.69 ± 2.4	4 ± 1.1	2.5 ± 1.3	10.8 ± 4.1
CSc1nc(NC2CC2)nc(NC(C)(C)C)n1 [Irgarol]	55.7 ± 4	44.2 ± 6.4	81.5 ± 4.4	19.6 ± 7	19.3 ± 6.5	20.9 ± 3.9	0.863 ± 0.085	0.842 ± 0.15	0.421 ± 0.023	–
CC1(C)CC(N)CC(C)(CN)C1 (stereo unspecified) [Isophorone diamine]	–	4.27 ± 3.6	–	0.00705 ± 0.025	0.0508 ± 0.069	–	–	–	1.22 ± 0.75	–
CC(C)c1ccc(NC(=O)N(C)C)cc1 [Isoproturon]	43.1 ± 2.7	53.4 ± 6.7	74.8 ± 3.5	37.1 ± 2.3	40.1 ± 2.3	40.4 ± 0.94	5.76 ± 0.47	5.5 ± 0.88	3.08 ± 0.39	46.2 ± 4.8
CCCCCCCCCCCC(=O)N(CCO)CCO [Lauryl diethanolamide]	–	51.6 ± 7.8	–	16.8 ± 3	24.3 ± 2.5	26.3 ± 2.7	24.9 ± 2.9	18.5 ± 3.1	13.2 ± 2.9	–
O=C1Nc2ccc(Cl)cc2C(c2ccccc2Cl)=NC1O (stereo unspecified) [Lorazepam]	30.9 ± 2.8	45.6 ± 7	72.1 ± 3.6	4.25 ± 0.37	8.29 ± 1.1	9.18 ± 1.4	38.9 ± 5.5	38.9 ± 3	31.1 ± 1.8	36.5 ± 2.4
Cc1cc(Cl)ccc1OCC(=O)O [MCPA]	43.1 ± 3	59.9 ± 5.7	71.8 ± 7.4	0.00252 ± 0.0044	0.00652 ± 0.0057	–	56.1 ± 11	64.2 ± 5.6	58.8 ± 3.1	46.2 ± 2.6
COC(=O)Nc1nc2cc(C(=O)c3ccccc3)ccc2[nH]1 [Mebendazole]	45 ± 2.8	42.1 ± 5.8	77.3 ± 3.4	13.7 ± 1.6	21 ± 1.4	23.6 ± 1.8	18.4 ± 2.3	14 ± 1.4	8.71 ± 0.66	71.2 ± 11
CC(=O)[C@@]1(O)CC[C@H]2[C@@H]3C[C@H](C)C4=CC(=O)CC[C@]4(C)[C@H]3CC[C@@]21C [Medroxyprogesterone]	–	47.7 ± 7	–	40.5 ± 2.4	46.2 ± 3.4	44.5 ± 6.2	–	–	1.02 ± 1.8	–
CC12CC3CC(C)(C1)CC(N)(C3)C2 [Memantine]	46.6 ± 1.4	45.1 ± 6.8	47.1 ± 4.5	3.61 ± 1.9	4.46 ± 2.7	3.08 ± 2.4	6.36 ± 0.42	7.03 ± 1.2	5.53 ± 0.96	14.8 ± 4.7
COCC(=O)N(c1c(C)cccc1C)C(C)C(=O)OC (stereo unspecified) [Metalaxyl]	–	50.3 ± 7.6	70.2 ± 2.1	33.1 ± 0.4	36.7 ± 3.2	36.9 ± 0.38	5.41 ± 0.46	5.16 ± 0.64	0.955 ± 1.6	–
Cc1cccc(C)c1N(Cn1cccn1)C(=O)C[S+](C)[O-] (stereo unspecified) [Metazachlor BH 479-11]	50.3 ± 0.97	51.8 ± 4.5	68.7 ± 3.1	5.75 ± 0.43	9.79 ± 2.3	11.1 ± 1.1	59.7 ± 9	57.3 ± 4.7	49.7 ± 6.9	46 ± 4.5
Cc1cccc(C)c1N(Cn1cccn1)C(=O)C(=O)O [Metazachlor OA]	–	50.4 ± 3.9	–	–	–	0.0244 ± 0.042	56.9 ± 8.4	63.4 ± 2.8	57.2 ± 4.4	–
Cc1cccc(C)c1N(Cn1cccn1)C(=O)CCl [Metazachlor]	38.6 ± 2.5	53.5 ± 7.4	66.2 ± 2.7	40.1 ± 1.9	42.9 ± 2.5	42.7 ± 2.1	1.5 ± 0.11	1.57 ± 0.29	0.82 ± 0.13	42.8 ± 5
